Measurements as given in patent US7265129B2, “Anti-infective biaryl compounds” (priority 2002, dated 2007).

Columns and labels:
B. cereus ATCC 11778 = assay: MIC, NCCLS broth microdilution, B. cereus; assay type: cell-based, Bacillus cereus
Excerpt: (§1) It vitro biological activity data were collected for a variety of microorganisms, including Bacillus cereus (ATCC 11778), Staphylococcus aureus (ATCC 33591; ATCC 27660, a methicillin resistant strain (MRSA); ATCC 13709, a methicillin sensitive strain (MSSA)), Enterococcus faecalis (ATCC 29212), and Streptococcus pneumoniae (ATCC 49619). Additionally, antifungal activity data were collected for Candida albicans (ATCC 38247).
(§2) Compounds according to this invention were screened for their in vitro activities against selected species of bacteria and fungi. The minimal inhibition concentration (MIC) of these compounds was determined using the National Committee for Clinical Laboratory Standards (NCCLS) broth microdilution assay in microtiter plates, as set forth in: (1) the guidelines of the National Committee for Clinical Laboratory Standards (NCCLS) Document M7-A4 (NCCLS, 1997); (2) the guidelines of the National Committee for Clinical Laboratory Standards (NCCLS) Document M11-A4 (NCCLS, 1997); and (3) the guidelines and reference method of the National Committee for Clinical Laboratory Standards (NCCLS) Document M27-T (NCCLS, 1995). For antifungal assays, the method recommended in Murray, P R., 1995 Manual of Clinical Microbiology (ASM Press, Washington, D.C.), was employed.

C. albicans ATCC 38247 = assay: MIC, antifungal assay, C. albicans; assay type: cell-based, Candida albicans
Excerpt: as §1, §2

E. faecalis ATCC 29212 = assay: MIC, NCCLS broth microdilution, E. faecalis; assay type: cell-based, Enterococcus faecalis
Excerpt: as §1, §2

S. aureus ATCC 13709 = assay: MIC, NCCLS broth microdilution, S. aureus MSSA; assay type: cell-based, Staphylococcus aureus; conditions: S. aureus ATCC 13709, methicillin sensitive strain (MSSA)
Excerpt: as §1, §2

S. aureus ATCC 27660 = assay: MIC, NCCLS broth microdilution, S. aureus MRSA; assay type: cell-based, Staphylococcus aureus; conditions: S. aureus ATCC 27660, methicillin resistant strain (MRSA)
Excerpt: as §1, §2

S. aureus ATCC 33591 = assay: MIC, NCCLS broth microdilution, S. aureus ATCC 33591; assay type: cell-based, Staphylococcus aureus
Excerpt: as §1, §2

S. pneumoniae ATCC 49619 = assay: MIC, NCCLS broth microdilution, S. pneumoniae; assay type: cell-based, Streptococcus pneumoniae
Excerpt: as §1, §2

| Compound | Minimum Inhibitory Concentration (MIC), organism A (B. cereus ATCC 11778) | Minimum Inhibitory Concentration (MIC), organism B (C. albicans ATCC 38247) | Minimum Inhibitory Concentration (MIC), organism C (E. faecalis ATCC 29212) | Minimum Inhibitory Concentration (MIC), organism D (S. aureus ATCC 13709) | Minimum Inhibitory Concentration (MIC), organism E (S. aureus ATCC 27660) | Minimum Inhibitory Concentration (MIC), organism F (S. aureus ATCC 33591) | Minimum Inhibitory Concentration (MIC), organism G (S. pneumoniae ATCC 49619) |
| --- | --- | --- | --- | --- | --- | --- | --- |
| Cn1cc(NC(=O)c2cc(NC(=O)c3sccc3Cl)cn2CCCN2CCC(O)CC2)cc1-c1nc2ccccc2[nH]1 [Compound A-53] | +++ (MIC ≦ 4 μg/mL) | + (12 ≦ MIC ≦ 32 μg/mL) | ++ (4 < MIC < 12 μg/mL) | +++ (MIC ≦ 4 μg/mL) | +++ (MIC ≦ 4 μg/mL) | +++ (MIC ≦ 4 μg/mL) | +++ (MIC ≦ 4 μg/mL) |
| Cn1cc(NC(=O)c2cc(NC(=O)c3sccc3Cl)cn2CCC[n+]2ccccc2)cc1-c1nc2ncccc2[nH]1 [Compound A-62] | >32 µg/mL | >32 µg/mL | >32 µg/mL | >32 µg/mL | + (12 ≦ MIC ≦ 32 μg/mL) | + (12 ≦ MIC ≦ 32 μg/mL) | + (12 ≦ MIC ≦ 32 μg/mL) |
| CN(C)CCCn1cc(NC(=O)c2cc3ccccc3cn2)cc1C(=O)Nc1cc(-c2nc3ccncc3[nH]2)n(C)c1 [Compound A-13] | +++ (MIC ≦ 4 μg/mL) | >32 µg/mL | +++ (MIC ≦ 4 μg/mL) | +++ (MIC ≦ 4 μg/mL) | +++ (MIC ≦ 4 μg/mL) | +++ (MIC ≦ 4 μg/mL) | +++ (MIC ≦ 4 μg/mL) |
| Cn1cc(NC(=O)c2cc(NC(=O)c3ccc(Cl)cc3F)cn2CCCN2CCC(O)CC2)cc1-c1nc2cccnc2[nH]1 [Compound A-42] | +++ (MIC ≦ 4 μg/mL) | + (12 ≦ MIC ≦ 32 μg/mL) | +++ (MIC ≦ 4 μg/mL) | +++ (MIC ≦ 4 μg/mL) | +++ (MIC ≦ 4 μg/mL) | +++ (MIC ≦ 4 μg/mL) | +++ (MIC ≦ 4 μg/mL) |
| CC1CCN(CCCn2cc(NC(=O)c3ccc(Cl)cc3F)cc2C(=O)Nc2cc(-c3nc4cccnc4[nH]3)n(C)c2)CC1 [Compound A-41] | +++ (MIC ≦ 4 μg/mL) | >32 µg/mL | +++ (MIC ≦ 4 μg/mL) | +++ (MIC ≦ 4 μg/mL) | +++ (MIC ≦ 4 μg/mL) | +++ (MIC ≦ 4 μg/mL) | +++ (MIC ≦ 4 μg/mL) |
| CN(C)CCCn1cc(NC(=O)c2sccc2Cl)cc1C(=O)Nc1cc(-c2nc3ncncc3[nH]2)n(C)c1 [Compound A-63] | >32 µg/mL | >32 µg/mL | + (12 ≦ MIC ≦ 32 μg/mL) | + (12 ≦ MIC ≦ 32 μg/mL) | + (12 ≦ MIC ≦ 32 μg/mL) | + (12 ≦ MIC ≦ 32 μg/mL) | +++ (MIC ≦ 4 μg/mL) |
| CC1CCN(CCCn2cc(NC(=O)c3sccc3Cl)cc2C(=O)Nc2cc(-c3nc4ccccc4[nH]3)n(C)c2)CC1 [Compound A-52] | +++ (MIC ≦ 4 μg/mL) | + (12 ≦ MIC ≦ 32 μg/mL) | +++ (MIC ≦ 4 μg/mL) | +++ (MIC ≦ 4 μg/mL) | +++ (MIC ≦ 4 μg/mL) | +++ (MIC ≦ 4 μg/mL) | +++ (MIC ≦ 4 μg/mL) |
| Cn1cc(NC(=O)c2cc3ccccc3cn2)cc1C(=O)Nc1cc(-c2nc3ccncc3[nH]2)n(C)c1 [Compound A-14] | +++ (MIC ≦ 4 μg/mL) | >32 µg/mL | +++ (MIC ≦ 4 μg/mL) | +++ (MIC ≦ 4 μg/mL) | +++ (MIC ≦ 4 μg/mL) | +++ (MIC ≦ 4 μg/mL) | +++ (MIC ≦ 4 μg/mL) |
| CN(C)CCCn1cc(NC(=O)c2ccc(Cl)cc2F)cc1C(=O)Nc1cc(-c2nc3cncnc3[nH]2)n(C)c1 [Compound A-46] | +++ (MIC ≦ 4 μg/mL) | >32 µg/mL | +++ (MIC ≦ 4 μg/mL) | +++ (MIC ≦ 4 μg/mL) | +++ (MIC ≦ 4 μg/mL) | +++ (MIC ≦ 4 μg/mL) | +++ (MIC ≦ 4 μg/mL) |
| Cn1cc(NC(=O)c2cc(NC(=O)c3ccc(Cl)cc3F)cn2CCCN2CCOCC2)cc1-c1nc2cccnc2[nH]1 [Compound A-40] | +++ (MIC ≦ 4 μg/mL) | >32 µg/mL | +++ (MIC ≦ 4 μg/mL) | +++ (MIC ≦ 4 μg/mL) | +++ (MIC ≦ 4 μg/mL) | +++ (MIC ≦ 4 μg/mL) | +++ (MIC ≦ 4 μg/mL) |
| CN(C)CCCn1cc(NC(=O)c2ccc(F)cc2F)cc1C(=O)Nc1cc(-c2nc3ncccc3[nH]2)n(C)c1 [Compound A-17] | +++ (MIC ≦ 4 μg/mL) | >32 µg/mL | +++ (MIC ≦ 4 μg/mL) | +++ (MIC ≦ 4 μg/mL) | +++ (MIC ≦ 4 μg/mL) | +++ (MIC ≦ 4 μg/mL) | +++ (MIC ≦ 4 μg/mL) |
| Cn1cc(NC(=O)c2cc3ccccc3cn2)cc1C(=O)Nc1cc(-c2nc3cc(O)ccc3[nH]2)n(C)c1 [Compound A-6] | +++ (MIC ≦ 4 μg/mL) | >32 µg/mL | +++ (MIC ≦ 4 μg/mL) | +++ (MIC ≦ 4 μg/mL) | +++ (MIC ≦ 4 μg/mL) | +++ (MIC ≦ 4 μg/mL) | +++ (MIC ≦ 4 μg/mL) |
| CN(C)CCCn1cc(NC(=O)c2ccc(F)cc2F)cc1C(=O)Nc1cc(-c2nc3ccncc3[nH]2)n(C)c1 [Compound A-18] | + (12 ≦ MIC ≦ 32 μg/mL) | >32 µg/mL | +++ (MIC ≦ 4 μg/mL) | + (12 ≦ MIC ≦ 32 μg/mL) | +++ (MIC ≦ 4 μg/mL) | +++ (MIC ≦ 4 μg/mL) | +++ (MIC ≦ 4 μg/mL) |
